We go through eight molecules from patent publication US11325900B2, “5-(pyrimidin-4-yl)thiazol-2-yl urea derivatives as therapeutic agents” (AUCENTRA HOLDINGS PTY LTD, priority 2018, dated 2022).

One assay deals with mouse model of AML. The note with it: background; cited from earlier work.
Assay [1] deals with acute myeloid leukaemia (AML) cell lines. The note with it: background; cited from earlier work.
The next assay has as its system HCT-116. Kind of assay: Cell viability assay (MTT, solid tumour cell lines), 72 h growth inhibition. It is filed as cell-based. As to conditions: Homo sapiens, HCT-116 cells. An excerpt: (§1) Compounds from Example 1 may be subjected to a standard MTT (3-(4,5-dimethylthiazol-2-yl)-2,5-diphenyltetrazolium bromide) and resazurin assays on solid tumour cell lines and leukemia cell lines, respectively, as previously reported (Wang S et al., J Med Chem 47:1662-1675, 2004 and Diab S e al. CheMedChem 9:962-972, 2014). Compound concentrations required to inhibit 50% of cell growth (GI50) can be calculated using non-linear regression analysis.

A further assay has as its system MV-4-11. Kind of assay: Cell viability assay (resazurin, leukemia cell lines), 72 h growth inhibition. It is filed as cell-based. As to conditions: Homo sapiens, MV4-11, MV-4-11 cells.
Excerpt: as §1
A general note: Resazurin is reduced to fluorescent resorufin, in cell work by metabolically active cells.

A further assay deals with T1, CDK8/CycC (Homo sapiens, UniProt P49336).
T1 construct: purchased ProQinase GmbH, Freiburg, Germany
T1 sequence (P49336 whole entry): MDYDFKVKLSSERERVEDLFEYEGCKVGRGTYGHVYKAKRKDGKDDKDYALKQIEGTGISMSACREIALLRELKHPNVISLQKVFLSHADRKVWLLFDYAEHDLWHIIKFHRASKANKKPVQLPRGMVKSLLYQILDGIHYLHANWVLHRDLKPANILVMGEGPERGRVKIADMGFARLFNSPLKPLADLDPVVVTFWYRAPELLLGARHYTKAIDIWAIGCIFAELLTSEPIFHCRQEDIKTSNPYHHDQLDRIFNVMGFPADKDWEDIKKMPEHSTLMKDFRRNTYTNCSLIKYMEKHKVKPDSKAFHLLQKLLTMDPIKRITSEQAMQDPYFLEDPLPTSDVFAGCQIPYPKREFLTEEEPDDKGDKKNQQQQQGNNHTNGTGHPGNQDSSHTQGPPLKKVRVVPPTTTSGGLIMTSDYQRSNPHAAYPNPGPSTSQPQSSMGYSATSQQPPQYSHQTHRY
T1 sequence (P24863 whole entry partner): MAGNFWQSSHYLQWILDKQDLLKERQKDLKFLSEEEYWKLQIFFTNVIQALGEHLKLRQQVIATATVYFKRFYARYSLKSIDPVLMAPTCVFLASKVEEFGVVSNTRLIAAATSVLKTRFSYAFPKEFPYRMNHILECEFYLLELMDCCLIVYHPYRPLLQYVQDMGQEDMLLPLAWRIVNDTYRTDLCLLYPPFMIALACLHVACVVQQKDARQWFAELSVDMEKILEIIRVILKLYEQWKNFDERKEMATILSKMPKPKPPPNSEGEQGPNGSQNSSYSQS
Description: Radiometric protein kinase assay (33PanQinase Activity Assay, ProQinase). It is filed as biochemical. The note with it: 1.0 μM ATP, 1.0 μg/50 μL substrate RBER-IRStide, duplicate measurements, read-out: CDK8 Kinase inhibition IC50. The method in brief:
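33P radiometric kinase assay on CDK8/CycC with 1.0 μM ATP and 1.0 μg/50 μL RBER-IRStide substrate. IC50 values came from duplicate measurements. Ki was calculated from IC50 and Km(ATP).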

For the molecule cortistatin A, the “Anticancer activity (in words)” value in the assay on mouse model of AML is “shows anticancer activity”. In assay [1], the “Suppression of cell growth (in words)” value is on record as “suppress cell growth”.

Broadly, the GI50 is the concentration giving 50% growth inhibition. A high value points to lower sensitivity of the cells. Broadly, the IC50 is the concentration at which inhibition is half-maximal. For `CNc1nccc(-c2sc(NC(=O)Nc3ccc(C(F)(F)F)c(Cl)c3)nc2C)n1` [Compound 5, 1-(3-Chloro-4-(trifluoromethyl)-phenyl)-3-(4-methyl-5-(2-(methylamino)pyrimidin-4-yl)thiazol-2-yl)urea], the GI50 in the assay with HCT-116 was 7.1 ± 0.96 µM; with MV-4-11, 3.81 ± 0.58 µM. Besides, the IC50 at CDK8/CycC is 0.025 µM.

As for `CNc1nccc(-c2sc(NC(=O)Nc3ccc(F)c(C(F)(F)F)c3)nc2C)n1` [Compound 25, 1-(4-Fluoro-3-(trifluoromethyl)phenyl)-3-(4-methyl-5-(2-(methylamino)-pyrimidin-4-yl)thiazol-2-yl)urea], the GI50 in the assay on HCT-116 was 5.85 ± 1.14 µM; in the assay with MV-4-11 it was 2.23 ± 0.14 µM. The IC50 at CDK8/CycC is 0.013 µM.

On to `CNc1nccc(-c2sc(NC(=O)Nc3ccc(CN4CCOCC4)c(C(F)(F)F)c3)nc2C)n1` [Compound 37, 1-(4-Methyl-5-(2-(methylamino)-pyrimidin-4-yl)thiazol-2-yl)-3-(4-(morpholinomethyl)-3-(trifluoromethyl)phenyl)urea], for which the GI50 with HCT-116 came out at 7.84 ± 0.39 µM; in the assay with MV-4-11, 0.068 ± 0.03 µM. Besides, the IC50 on CDK8/CycC worked out at 0.009 µM.

As for `CNc1nccc(-c2sc(NC(=O)Nc3ccc(OC)cc3)nc2C)n1` [Compound 45, 1-(4-Methoxyphenyl)-3-(4-methyl-5-(2-(methylamino)pyrimidin-4-yl)thiazol-2-yl)urea], the 50% growth inhibitory concentration (GI50) in the assay with HCT-116 amounted to 3.04 ± 0.53 µM; with MV-4-11 it was 0.756 ± 0.12 µM. Besides, the IC50 at CDK8/CycC was 0.011 µM.

In the case of `CNc1nccc(-c2sc(NC(=O)Nc3ccc(C)c(Cl)c3)nc2C)n1` [Compound 29, 1-(3-Chloro-4-methylphenyl)-3-(4-methyl-5-(2-(methylamino)-pyrimidin-4-yl)thiazol-2-yl)urea], the GI50 was determined as 7.77 ± 0.43 µM in the assay with HCT-116 and 2.16 ± 1.17 µM with MV-4-11. Besides, on CDK8/CycC, the half-maximal inhibitory concentration (IC50) worked out at 0.013 µM.

For the molecule `CNc1nccc(-c2sc(NC(=O)Nc3cccc(C#N)c3)nc2C)n1` [Compound 15, 1-(3-Cyanophenyl)-3-(4-methyl-5-(2-(methylamino)pyrimidin-4-yl)thiazol-2-yl)urea], the figures for the GI50 with HCT-116 and in the assay with MV-4-11 were 6.25 ± 0.61 µM and 0.565 ± 0.04 µM, respectively. Moreover, the 50% inhibitory concentration (IC50) at CDK8/CycC turned out to be 0.008 µM.

With `CNc1nccc(-c2sc(NC(=O)Nc3cccc(OC(F)F)c3)nc2C)n1` [Compound 20, 1-(3-(Difluoromethoxy)phenyl)-3-(4-methyl-5-(2-(methylamino)-pyrimidin-4-yl)thiazol-2-yl)urea], the GI50 with HCT-116 was 4.53 ± 0.98 µM; in the assay on MV-4-11, 0.939 ± 0.06 µM. Besides, the IC50 at CDK8/CycC was found to be 0.006 µM.
